Like-named read-outs stand apart in the source and are kept apart here. One block for each compound: values may come before it.
How the values were obtained:
MCF-7 = test: MTT anti-proliferative assay, MCF-7; assay type: cell-based; settings: Homo sapiens, MCF7, read-out: IC50 MCF-7
HepG2 = test: MTT anti-proliferative assay, HepG2; assay type: cell-based, human; settings: mean of three experiments
VEGFR-2 = VEGFR-2 (Homo sapiens, UniProt P35968); test: biochemical
MCF-7 cells [1] = test: Cell cycle analysis by flow cytometry; assay type: cell-based, human; settings: MCF-7, 10.17 μM, 72 h
MCF-7 cells [2] = test: Apoptosis assay, annexin V / PI flow cytometry; assay type: cell-based, human; settings: MCF-7, 10.17 μM, 72 h
BAX = BAX level in MCF-7 cells; assay type: cell-based, human; settings: MCF-7, 10.17 μM
Bcl-2 = Bcl-2 level in MCF-7 cells; assay type: cell-based, human; settings: MCF-7, 10.17 μM
caspase-8 = test: Caspase-8 level in MCF-7 cells; assay type: cell-based, human; settings: MCF-7, 10.17 μM
caspase-9 = test: Caspase-9 level in MCF-7 cells; assay type: cell-based, human; settings: MCF-7, 10.17 μM
TNF-α = TNF-α level in MCF-7 cells; assay type: cell-based, human
IL6 = IL6 level in MCF-7 cells; assay type: cell-based, human
[3] = Homo sapiens, HepG2, read-out: IC50 HepG2, MTT assay

Chain of VEGFR-2 (P35968 20-1356): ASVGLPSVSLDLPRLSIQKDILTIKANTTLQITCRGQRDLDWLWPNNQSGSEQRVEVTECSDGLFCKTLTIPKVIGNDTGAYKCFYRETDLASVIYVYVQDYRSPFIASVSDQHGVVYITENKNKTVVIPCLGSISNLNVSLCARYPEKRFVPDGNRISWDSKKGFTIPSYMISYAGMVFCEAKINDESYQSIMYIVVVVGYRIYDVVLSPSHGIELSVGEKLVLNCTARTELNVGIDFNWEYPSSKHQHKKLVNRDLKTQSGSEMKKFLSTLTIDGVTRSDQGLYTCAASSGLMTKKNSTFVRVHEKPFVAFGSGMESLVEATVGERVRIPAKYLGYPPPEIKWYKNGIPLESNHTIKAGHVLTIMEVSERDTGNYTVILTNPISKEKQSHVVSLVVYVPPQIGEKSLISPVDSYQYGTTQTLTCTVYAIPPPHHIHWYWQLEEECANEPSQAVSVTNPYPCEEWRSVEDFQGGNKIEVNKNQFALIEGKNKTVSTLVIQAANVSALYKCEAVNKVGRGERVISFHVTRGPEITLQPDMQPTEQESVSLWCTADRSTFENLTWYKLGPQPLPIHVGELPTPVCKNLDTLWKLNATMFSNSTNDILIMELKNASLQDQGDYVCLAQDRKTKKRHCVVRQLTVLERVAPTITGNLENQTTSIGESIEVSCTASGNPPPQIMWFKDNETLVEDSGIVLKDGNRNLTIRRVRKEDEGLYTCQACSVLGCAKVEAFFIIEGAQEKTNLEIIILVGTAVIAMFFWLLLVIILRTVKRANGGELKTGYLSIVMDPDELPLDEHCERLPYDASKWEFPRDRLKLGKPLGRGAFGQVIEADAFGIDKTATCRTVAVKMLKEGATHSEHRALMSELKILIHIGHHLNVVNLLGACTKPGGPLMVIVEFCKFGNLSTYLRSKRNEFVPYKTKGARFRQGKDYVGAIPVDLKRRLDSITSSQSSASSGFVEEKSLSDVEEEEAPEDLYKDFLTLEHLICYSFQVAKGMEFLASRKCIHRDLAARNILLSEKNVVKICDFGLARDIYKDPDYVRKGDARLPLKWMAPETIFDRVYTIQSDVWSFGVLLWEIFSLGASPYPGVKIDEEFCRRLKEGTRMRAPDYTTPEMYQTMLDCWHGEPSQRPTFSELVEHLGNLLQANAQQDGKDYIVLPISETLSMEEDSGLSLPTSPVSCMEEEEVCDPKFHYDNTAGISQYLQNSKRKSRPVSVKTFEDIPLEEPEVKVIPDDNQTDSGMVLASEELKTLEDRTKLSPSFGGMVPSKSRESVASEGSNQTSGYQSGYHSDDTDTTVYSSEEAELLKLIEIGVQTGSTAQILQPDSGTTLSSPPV

SMILES: O=C(CSc1nnc(Cn2cnc3sc4c(c3c2=O)CCCC4)o1)Nc1ccc(Cl)cn1 [Compound 20, N-(5-Chloropyridin-2-yl)-2-((5-((4-oxo-5,6,7,8-tetrahydrobenzo[4,5]thieno[2,3-d]pyrimidin-3(4H)-yl)methyl)-1,3,4-oxadiazol-2-yl)thio)acetamide]
IC50 (MCF-7): 5.38 ± 0.45 µM | IC50 (HepG2; [3]): 4.84 ± 0.38 µM

SMILES: O=C(CSc1nnc(Cn2cnc3sc4c(c3c2=O)CCCC4)o1)N1CCCCC1 [Compound 18, 3-((5-((2-Oxo-2-(piperidin-1-yl)ethyl)thio)-1,3,4-oxadiazol-2-yl)methyl)-5,6,7,8-tetrahydrobenzo[4,5]thieno[2,3-d]pyrimidin-4(3H)-one]
IC50 (MCF-7): 10.2 ± 1.01 µM | IC50 (HepG2; [3]): 24.5 µM | IC50 (HepG2; read-out: IC50 HepG2, MTT assay): 24.3 ± 2.08 µM | Cell cycle distribution (%) % G2/M (MCF-7 cells [1]): 15.4% | Cell cycle distribution (%) %G0–G1 (MCF-7 cells [1]): 56.46% | Cell cycle distribution (%) %S (MCF-7 cells [1]): 28.14% | Apoptosis induced (early + late) (MCF-7 cells [2]): 23.35% | Early apoptosis (MCF-7 cells [2]): 15.96% | Late apoptosis (MCF-7 cells [2]): 7.39% | Necrosis (MCF-7 cells [2]): 2.41 | Total (cell death) (MCF-7 cells [2]): 25.76 | BAX level increase vs control (BAX): 3.6 fold | Protein expression BAX (BAX; control = 1): 3.669 | Bcl-2 level decrease vs control (Bcl-2): 3.1 fold | Protein expression Bcl-2 (Bcl-2; control = 1): 0.315 | Caspase-8 level increase vs control (caspase-8): 2.6 fold | Protein expression Caspase-8 (caspase-8; control = 1): 2.607 | Caspase-9 level increase vs control (caspase-9): 5.4 fold | Protein expression Caspase-9 (caspase-9; control = 1): 5.422 | TNF-α level lower than control (TNF-α): 2.9 times | TNF-α level (TNF-α; control = 1): 0.335 | IL6 level lower than control (IL6): 2.5 times | IL6 level (IL6; control = 1): 0.393

SMILES: CNC(=O)c1cc(Oc2ccc(NC(=O)Nc3ccc(Cl)c(C(F)(F)F)c3)cc2)ccn1 [Sorafenib, reference compound]
IC50 (MCF-7): 9.98 ± 0.6 µM | IC50 (HepG2; [3]): 13.3 ± 0.3 µM

Now from value to compound:

IC50 (MCF-7): 6.31 ± 0.16 µM | IC50 (HepG2; [3]): 11.8 ± 1.05 µM | IC50 (VEGFR-2): 0.42 ± 0.008 µM
SMILES: O=C(CSc1nnc(Cn2cnc3sc4c(c3c2=O)CCCC4)o1)Nc1nccs1 [Compound 21, 2-((5-((4-Oxo-5,6,7,8-tetrahydrobenzo[4,5]thieno[2,3-d]pyrimidin-3(4H)-yl)methyl)-1,3,4-oxadiazol-2-yl)thio)-N-(thiazol-2-yl)acetamide]

IC50 (MCF-7): 5.73 ± 0.18 µM | IC50 (HepG2; [3]): 5.51 ± 0.25 µM
SMILES: O=C(CSc1nnc(Cn2cnc3sc4c(c3c2=O)CCCC4)o1)Nc1nc2ccccc2s1 [Compound 22, N-(Benzo[d]thiazol-2-yl)-2-((5-((4-oxo-5,6,7,8-tetrahydrobenzo[4,5]thieno[2,3-d]pyrimidin-3(4H)-yl)methyl)-1,3,4-oxadiazol-2-yl)thio)acetamide]

IC50 (MCF-7): 16.5 ± 1.16 µM | IC50 (HepG2; [3]): 31.8 ± 1.15 µM | IC50 (VEGFR-2): 0.29 ± 0.007 µM
SMILES: O=C(CSc1nnc(Cn2cnc3sc4c(c3c2=O)CCCC4)o1)Nc1c([N+](=O)[O-])cccc1[N+](=O)[O-] [Compound 19, N-(2,6-Dinitrophenyl)-2-((5-((4-oxo-5,6,7,8-tetrahydrobenzo[4,5]thieno[2,3-d]pyrimidin-3(4H)-yl)methyl)-1,3,4-oxadiazol-2-yl)thio)acetamide]
